Experimental data from ChEMBL document CHEMBL1150858, “Two new cytotoxic and virucidal trisulfated triterpene glycosides from the Antarctic sea cucumber Staurocucumis liouvillei” (J Nat Prod, 2001).

What was measured:
Human alphaherpesvirus 1 = assay: Antiviral activity against HSV1 KOS in african green monkey Vero cells assessed as residual infectivity at 10 ug/mL by plaque formation assay; format: functional
Vero [1] = assay: Cytotoxicity against african green monkey Vero cells at 6.25 to 50 ug/mL measured after prolonged incubation by MTT assay; format: cell-based; details: chlorocebus sabaeus
Vero [2] = assay: Cytotoxicity against african green monkey Vero cells at 6.25 to 50 ug/mL within 8 hrs by MTT assay; format: cell-based; details: chlorocebus sabaeus

Compound	Activity (Human alphaherpesvirus 1)	Activity (Vero [1])	Activity (Vero [2])
CO[C@@H]1[C@@H](O)[C@H](O[C@@H]2[C@@H](O)[C@H](O[C@H]3[C@H](O)[C@@H](O)[C@H](O[C@H]4[C@H](O[C@H]5CC[C@]6(C)[C@H]7CC[C@]89C(=O)O[C@@](C)(CCCC(C)C)[C@H]8[C@@H](OC(C)=O)C[C@@]9(C)C7=CC[C@H]6C5(C)C)OC[C@@H](OS(=O)(=O)[O-])[C@@H]4O)O[C@@H]3C)O[C@H](COS(=O)(=O)[O-])[C@H]2O)O[C@H](COS(=O)(=O)[O-])[C@H]1O.[Na+].[Na+].[Na+] [LIOUVILLOSIDE B]	2.5%	Toxic	Non-toxic
CO[C@@H]1[C@@H](O)[C@H](O[C@@H]2[C@@H](O)[C@H](O[C@H]3[C@H](O)[C@@H](O)[C@H](O[C@H]4[C@H](O[C@H]5CC[C@]6(C)[C@H]7CC[C@]89C(=O)O[C@@](C)(CCC=C(C)C)[C@H]8[C@@H](OC(C)=O)C[C@@]9(C)C7=CC[C@H]6C5(C)C)OC[C@@H](OS(=O)(=O)[O-])[C@@H]4O)O[C@@H]3C)O[C@H](COS(=O)(=O)[O-])[C@H]2O)O[C@H](COS(=O)(=O)[O-])[C@H]1O.[Na+].[Na+].[Na+] [LIOUVILLOSIDE A]	24%	Toxic	Non-toxic
